From EP1077981B1, “NOVEL CEPHALOSPORIN COMPOUNDS, PROCESSES FOR PREPARATION THEREOF AND ANTIMICROBIAL COMPOSITIONS CONTAINING THE SAME” (LG CHEMICAL LIMITED, priority 1998, dated 1999) come the findings set out here.

Series [1] has as its system E. coli. Put plainly: MIC against standard strains (agar dilution). The class given is cell-based. As to conditions: Escherichia coli, Mueller-Hinton agar, 10^7 cfu/mℓ, 20 hours at 37°C. The protocol: (§1) Test example 1: Measurement of Minimum Inhibitory Concentration (MIC)
(§2) Specifically, test compounds were diluted by 2-fold dilution method and dispersed in Mueller-Hinton agar medium and then, 2µℓ of test strains were inoculated at a concentration of 10^7 cfu(colony forming unit)/mℓ on the medium and incubated for 20 hours at 37°C.
A general note: Agar dilution tests growth on a series of plates holding different concentrations.

Series [2] relates to H. influenzae. In words: MIC against standard strains (agar dilution). It is filed as cell-based. The following applies: Haemophilus influenzae. The protocol: as §1, §2
Series [3] relates to P. vulgaris. In words: MIC against standard strains (agar dilution). As to conditions: Proteus vulgaris, Mueller-Hinton agar, 10^7 cfu/mℓ, 20 hours at 37°C. It is filed as cell-based. How it is done: as §1, §2
Series [4] deals with S. aureus. Put plainly: MIC against standard strains (agar dilution). It is filed as cell-based. The following applies: Staphylococcus aureus, Mueller-Hinton agar, 10^7 cfu/mℓ, 20 hours at 37°C. The protocol: as §1, §2
For series [5], the system named is S. pneumoniae. Put plainly: MIC against standard strains (agar dilution). The following applies: Streptococcus pneumoniae, Mueller-Hinton agar, 10^7 cfu/mℓ, 20 hours at 37°C. It is filed as cell-based. The protocol: as §1, §2
Series [6] is described as follows: Pharmacokinetic experiment (blood concentration by HPLC). It is filed as in vivo, mice. As to conditions: mice, 20mg/kg; for AUC / half-life: male, mouse, blood. How it is done: Test example 2: Pharmacokinetic experiment
Male mice, each of which has a body weight of […] were used in the present pharmacokinetic experiment. Test compounds were formulated into 1% of solution and then, the solution was administered by oral route and by injection with a dose of 20mg/kg, respectively. At the fixed interval of time after administration, blood was gathered from the mice. Concentrations of test compounds in blood were measured by HPLC quantitative analysis and based on the results, pharmacokinetic parameters were calculated.

In brackets after ≈: the same amount, converted by molar mass. Where two headings read alike, the source gives them in different places.

On to `CO/N=C(\C(=O)NC1C(=O)N2C(C(=O)O)=C(SCSc3ncccn3)CSC12)c1csc(N)n1` (stereo not shown) [compound 1, 7-[(Z)-2-(2-amino-thiazol-4-yl)-2-methoxyimino-acetylamino]-8-oxo-3-(pyrimidin-2-ylsulfanylmethylsulfanyl)-5-thia-1-aza-bicyclo[4,2,0]oct-2-ene-2-carboxylic acid], for which the MIC in series [1] came out at 0.13 µg/mL (≈ 0.241 µM); in series [2] (20 h) it was 0.008 µg/mL (≈ 0.0148 µM); in series [3], 0.063 µg/mL (≈ 0.117 µM); in series [4] it was 0.5 µg/mL (≈ 0.927 µM); in series [5], 0.5 µg/mL (≈ 0.927 µM).

Turning to `CO/N=C(\C(=O)NC1C(=O)N2C(C(=O)O)=C(SCSc3cc(N)nc(N)n3)CSC12)c1nc(N)sc1Cl` (stereo not shown) [compound 8, 7-[(Z)-2-(2-amino-5-chloro-thiazol-4-yl)-2-methoxyimino-acetylamino]-3-(2,6-diamino-pyrimidin-4-ylsulfanylmethylsulfanyl)-8-oxo-5-thia-1-aza-bicyclo[4,2,0]oct-2-ene-2-carboxylic acid], the MIC in series [1] stood at 0.25 µg/mL (≈ 0.414 µM); in series [2] (20 h) it was 0.031 µg/mL (≈ 0.0513 µM); in series [3], 0.25 µg/mL (≈ 0.414 µM); in series [4], 0.25 µg/mL (≈ 0.414 µM); in series [5], 0.13 µg/mL (≈ 0.215 µM).

Usually AUC stands for the area under the concentration-time curve, a measure of exposure. Higher therefore signals more exposure. One may read the half-life as how long it takes for the measured level to halve. A lower half-life goes with fast loss. On to `C=CC1=C(C(=O)O)N2C(=O)[C@@H](NC(=O)/C(=N\O)c3csc(N)n3)[C@H]2SC1` [Cefdinir, reference compound], for which the MIC in series [1] was found to be 0.016 µg/mL (≈ 0.0405 µM); in series [2] (H. influenzae, Mueller-Hinton agar, 10^7 cfu/mℓ, 20 hours at 37°C, read-out: MIC) it was 0.25 µg/mL (≈ 0.632 µM); in series [3], 0.031 µg/mL (≈ 0.0784 µM); in series [4], 0.031 µg/mL (≈ 0.0784 µM); in series [5], 4 µg/mL (≈ 10.1 µM). Besides, the AUC was 50000 ng·h/mL in series [6] (intravenous, Injection) and 6380 ng·h/mL in series [6] (Oral administration). The half-life in series [6] (intravenous, Injection) worked out at 0.35 h; in series [6] (Oral administration), 1.23 h; in series [6] (intravenous injection), 0.35 h. This compound registered a maximum conc. in series [6] (Oral administration) of 2.9 µg/mL.

As to `CO/N=C(\C(=O)NC1C(=O)N2C(C(=O)O)=C(SCc3cnc(N)nc3N)CSC12)c1csc(N)n1` (stereo not shown) [compound 19, 7-[(Z)-2-(2-amino-1,3-thiazol-4-yl)-2-methoxyimino-acetylamino]-3-(2,4-diaminopyrimidin-5-ylmethylsulfanyl)-8-oxo-5-t hia-1-aza-bicyclo[4,2,0]oct-2-ene-2-carboxylic acid], in series [6] (Oral administration), the AUC is 6320 ng·h/mL, the half-life was determined as 1.15 h and the maximum conc. stood at 3.2 µg/mL.

As for `Nc1cc(SCSC2=C(C(=O)O)N3C(=O)C(NC(=O)/C(=N\O)c4csc(N)n4)C3SC2)nc(N)n1` (stereo not shown) [compound 6, 7-[(Z)-2-(2-amino-thiazol-4-yl)-2-hydroxyimino-acetylamino]-3-(2,6-diamino-pyrimidin-4-ylsulfanylmethylsulfanyl)-8-oxo-5-thia-1-aza-bicyclo[4,2,0]oct-2-ene-2-carboxylic acid], the MIC in series [1] was determined as 0.031 µg/mL (≈ 0.0558 µM); in series [2] (20 h) it was 0.5 µg/mL (≈ 0.9 µM); in series [3], 0.031 µg/mL (≈ 0.0558 µM); in series [4], 0.13 µg/mL (≈ 0.234 µM); in series [5] it was 0.5 µg/mL (≈ 0.9 µM).

In the case of `CO/N=C(\C(=O)NC1C(=O)N2C(C(=O)O)=C(SCSc3nc(N)cc(N)n3)CSC12)c1csc(N)n1` (stereo not shown) [compound 3, 7-[(Z)-2-(2-amino-thiazol-4-yl)-2-methoxyimino-acetylamino]-3-(4,6-diamino-pyrimidin-2-ylsulfanylmethylsulfanyl)-8-oxo-5-thia-1-aza-bicyclo[4,2,0]oct-2-ene-2-carboxylic acid], the MIC in series [1] turned out to be 0.063 µg/mL (≈ 0.111 µM); in series [2] (20 h), 0.016 µg/mL (≈ 0.0281 µM); in series [3], 0.016 µg/mL (≈ 0.0281 µM); in series [4], 0.5 µg/mL (≈ 0.878 µM); in series [5], 0.25 µg/mL (≈ 0.439 µM).

For the compound `CO/N=C(\C(=O)NC1C(=O)N2C(C(=O)O)=C(SCSc3cc(N)nc(N)n3)CSC12)c1csc(N)n1` (stereo not shown) [compound 4, 7-[(Z)-2-(2-amino-thiazol-4-yl)-2-methoxyimino-acetylamino]-3-(2,6-diamino-pyrimidin-4-ylsulfanylmethylsulfanyl)-8-oxo-5-thia-1-aza-bicyclo[4,2,0]oct-2-ene-2-carboxylic acid], the MIC in series [1] is 0.063 µg/mL (≈ 0.111 µM); in series [2] (20 h), 0.008 µg/mL (≈ 0.014 µM); in series [3], 0.016 µg/mL (≈ 0.0281 µM); in series [4] it was 0.25 µg/mL (≈ 0.439 µM); in series [5], 0.13 µg/mL (≈ 0.228 µM).

Consider `Nc1cc(N)nc(SCSC2=C(C(=O)O)N3C(=O)C(NC(=O)/C(=N\O)c4csc(N)n4)C3SC2)n1` (stereo not shown) [compound 5, 7-[(Z)-2-(2-amino-thiazol-4-yl)-2-hydroxyimino-acetylamino]-3-(4,6-diamino-pyrimidin-2-ylsulfanylmethylsulfanyl)-8-oxo-5-thia-1-aza-bicyclo[4,2,0]oct-2-ene-2-carboxylic acid], for which the MIC in series [1] turned out to be 0.063 µg/mL (≈ 0.113 µM); in series [2] (20 h), 0.25 µg/mL (≈ 0.45 µM); in series [3], 0.031 µg/mL (≈ 0.0558 µM); in series [4] it was 0.13 µg/mL (≈ 0.234 µM); in series [5], 1 µg/mL (≈ 1.8 µM).

In the case of `Nc1cc(SCSC2=C(C(=O)O)N3C(=O)C(NC(=O)/C(=N\O)c4nc(N)sc4Cl)C3SC2)nc(N)n1` (stereo not shown) [compound 7, 7-[(Z)-2-(2-amino-5-chloro-thiazol-4-yl)-2-hydroxyimino-acetylamino]-3-(2,6-diamino-pyrimidin-4-ylsulfanylmethylsulfanyl)-8-oxo-5-thia-1-aza-bicyclo[4,2,0]oct-2-ene-2-carboxylic acid], the MIC was 0.25 µg/mL (≈ 0.424 µM) in series [1]; 0.13 µg/mL (≈ 0.22 µM) in series [2] (20 h); 0.25 µg/mL (≈ 0.424 µM) in series [3]; 0.13 µg/mL (≈ 0.22 µM) in series [4]; 0.25 µg/mL (≈ 0.424 µM) in series [5]. Besides, the AUC in series [6] (intravenous, Injection) is 107000 ng·h/mL; in series [6] (Oral administration) it was 59900 ng·h/mL. Further, the half-life in series [6] (intravenous, Injection) was 2.32 h; in series [6] (Oral administration) it was 2.8 h. In series [6] (Oral administration), this compound returned a maximum conc. of 13.8 µg/mL.

As to `CO/N=C(\C(=O)NC1C(=O)N2C(C(=O)O)=C(SCSc3nccc(N)n3)CSC12)c1csc(N)n1` (stereo not shown) [Compound No. 2, 7-[(Z)-2-(2-amino-thiazol-4-yl)-2-methoxyimino-acetylamino]-8-oxo-3-(4-amino-pyrimidin-2-ylsulfanylmethylsulfanyl)-5-t hia-1-aza-bicyclo[4,2,0]oct-2-ene-2-carboxylic acid], the MIC was 0.063 µg/mL (≈ 0.114 µM) in series [1]; 0.008 µg/mL (≈ 0.0144 µM) in series [2] (20 h); 0.031 µg/mL (≈ 0.0559 µM) in series [3]; 0.5 µg/mL (≈ 0.901 µM) in series [4]; 0.25 µg/mL (≈ 0.451 µM) in series [5].

For `CO/N=C(\C(=O)NC1C(=O)N2C(C(=O)O)=C(SCc3cc(N)nc(N)n3)CSC12)c1csc(N)n1` (stereo not shown) [compound 20, 7-[(Z)-2-(2-amino-1,3-thiazol-4-yl)-2-methoxyimino-acetylamino]-3-(2,4-diaminopyrimidin-6-ylmethylsulfanyl)-8-oxo-5-t hia-1-aza-bicyclo[4,2,0]oct-2-ene-2-carboxylic acid], the MIC was found to be 0.031 µg/mL (≈ 0.0577 µM) in series [1]; 0.031 µg/mL (≈ 0.0577 µM) in series [2] (20 h); 0.016 µg/mL (≈ 0.0298 µM) in series [3]; 2 µg/mL (≈ 3.72 µM) in series [4]; 2 µg/mL (≈ 3.72 µM) in series [5].
